The text below walks through data of ChEMBL document CHEMBL3525962, “Novel bioactivation mechanism of reactive metabolite formation from phenyl methyl-isoxazoles” (Drug Metab Dispos, 2012).

The structures appear in SMILES notation.

The series has as its system Liver microsome. The series can be described thus: Drug metabolism in human liver microsomes assessed as oxidative metabolite formation at 10 uM by LC-MS analysis in presence of NADPH. The class given is ADME. (Liver microsomes are vesicles of endoplasmic reticulum, rich in cytochrome P450 enzymes.)

On to `Cc1onc(-c2ccccc2)c1NC(=O)NCc1ccc(Cl)cc1Cl`, for which the Drug metabolism entry was “metabolite_detected”.
